Results published in EP0433074B1, “Method for treating cardiac malfunction” (THE GENERAL HOSPITAL CORPORATION, priority 1989, dated 1991).

Tests used:
[1] = test system: rat abdominal aortic rings; experiment: Vascular tension in isolated aortic rings; parameters: species or system Sprague-Dawley rats; conditions: KCl 20 mM; above resting tension of 1.5 g
Protocol: Experiments were conducted to determine the vasoconstrictive properties of HIF. The protocol for these experiments is described in greater detail in Example V. In general, Sprague-Dawley rats were anesthetized and the abdominal aorta surgically removed. 2 mm vascular rings were attached to a force transducer and bathed in buffer, and tension adjusted to 1.5 g. Tissue viability was documented and vasoconstrictive responses calibrated using known vasoconstrictors such as potassium chloride and norepinephrine. Blood vessels thus prepared were then tested with varing doses of HIF.
Sprague-Dawley rats weighing 250-350 grams were anesthetized with pentobarbital intraperitoneally, the abdominal aorta rapidly excised and dissected free of all loose connective tissue in cold Krebs-Henseleit bicarbonate buffer of the following composition, mM: NaCl, 118.3; KCl, 4.7; MgSo₄, 1.2; KH₂PO₄, 1.2; CaCl₂, 2.5; NaHCO₃, 25.0; Na-EDTA, 0.016; and glucose, 11.1. 2-3 mm (length) vascular rings were excised, attached to a force transducer and bathed in a water jacketed (37°C) organ chamber containing 5 ml of the above buffer gassed with 95% O₂ and 5% CO₂. […] force measurements were obtained with a Grass force displacement transducer attached to a Grass 79D polygraph DC amplifier, and recorded with a two-channel Kipp Zonen recorder. […]

[2] = test system: cultured cardiac myocytes; experiment: Cytosolic free Ca²⁺ measured with fura-2 in cultured cardiac myocytes; assay type: cell-based, rat; conditions: ouabain 10^-6 M, steady state, control 138±3
Protocol: Myocardial cells were isolated from ventrical fragments of the hearts of 1-day old Sprague-Dawley rats by serial trypsinizations in a Ca²⁺ and Mg²⁺-free Hanks Buffered Salt Solution (HBSS) as previously described (Yagev, S., et al., In Vitro, 20:893-898 (1984)). Trypsinized cells were decanted into HamF10 medium containing 20% serum and antibiotics and centrifuged at 1000 r.p.m. for 10 minutes. The cell pellet was resuspended in HamF10 medium containing fetal calf serum and 10% horse serum with 0.1% penicillin-streptomycin, and diluted to a concentration of 5 x 10⁵ cells/ml. For measurements of cytosolic free calcium concentration ([Ca²⁺]i), the cells were plated on rectangular glass coverslips (13 x 30 mm) and for measurements of cell contractility, plated on circular glass coverslips (12 mm), and both types of coverslips placed inside petri dishes. […]
Changes in [Ca²⁺] i were detected using the fluorescent probe, fura-2 (Grynkiewicz, G., et al., J. Biol. Chem., 260:3440-3450 (1985)). […] The fluorescence was continuously recorded using a PTI DeltaScan 1 spectrofluorometer. […] Values of [Ca²⁺]i were calculated from the ratio R = F₃₄₀/F₃₈₀ [formula] […] Rmax and Rmin were determined in separate experiments using digitonin to equilibrate [Ca²⁺]i with ambient [Ca²⁺] […] Background autofluorescence was measured in unloaded cells and substracted from all measurements.

[3] = test system: neonatal rat cardiac myocytes; experiment: ⁸⁶Rb⁺ influx (Na⁺ pump activity) in cultured cardiac cells; assay type: cell-based; conditions: ouabain 5 mM, 20 min preincubation
Protocol: Na⁺ pump activity was estimated in the cultured cardiac cells as the difference in ⁸⁶Rb⁺ uptake observed in the absence and presence of 5 mM ouabain, following the method of Panet et al (Panet, R., et al., J. Memb. Biol., 70:165-169 (1982)). To insure saturation binding, myocytes were preincubated for 20 minutes with HIF (2 unit/ml) or ouabain (5 mM) or both prior to addition of ⁸⁶Rb⁺ to run the 10 minute flux. Myocyte monolayers were washed with HEPES buffer solution (final concentrations, mM: NaCl 150, RbCl 5, HEPES-Tris 10 (pH7.0) , CaCl₂ 1, MgCl₂ 5, glucose 10), and the uptake initiated by covering over with 0.5 ml of same solution pre-warmed to 37°C and containing 2 uCi ⁸⁶RbCl. […] The cells were lysed with 0.6 ml of 0.1 N NaOH containing 0.1% (w/v) sodium dodecylsulfate, and the radioactivity counted in Instagel (Packard) scintillation medium.
The concentration dependence of HIF inhibition was determined by preincubating cells with HIF at 0.5 units/ml, 0.8 units/ml, 1 unit/ml, 2 units/ml and 4 units/ml concentration for 20 min. ⁸⁶RbCl (2 uCi/well) was then added to run the flux.

[4] = test system: cardiac myocytes; experiment: Myocyte contractility (amplitude of systolic motion, beating frequency), phase contrast video motion detector; assay type: cell-based, rat
Protocol: In general, the amplitude of contraction (i.e., degree of positive inotropy) was measured in single, beating myocytes as the amplitude of systolic motion (ASM) using a phase contrast video motion detector system. The same detector system was used to measure toxicity, which is evidenced as a decrease in ASM, a change in the position of maximal relaxation (MR), and an increase in beating frequency.
Myocardial cells were isolated from ventrical fragments of the hearts of 1-day old Sprague-Dawley rats by serial trypsinizations in a Ca²⁺ and Mg²⁺-free Hanks Buffered Salt Solution (HBSS) as previously described (Yagev, S., et al., In Vitro, 20:893-898 (1984)). Trypsinized cells were decanted into HamF10 medium containing 20% serum and antibiotics and centrifuged at 1000 r.p.m. for 10 minutes. The cell pellet was resuspended in HamF10 medium containing fetal calf serum and 10% horse serum with 0.1% penicillin-streptomycin, and diluted to a concentration of 5 x 10⁵ cells/ml. For measurements of cytosolic free calcium concentration ([Ca²⁺]i), the cells were plated on rectangular glass coverslips (13 x 30 mm) and for measurements of cell contractility, plated on circular glass coverslips (12 mm), and both types of coverslips placed inside petri dishes. For measurements of ⁸⁶Rb⁺ uptake cells were plated in petri dishes (1 - 1.5 x 10⁶ cells/35mm dish). All cultures were incubated in humidified 5% CO₂, 95% air at 37°C.
Contractility, determined as amplitude of systolic cell motion (ASM), and beating frequency were measured in individual cells using a phase contrast microscope video motion detector system according to the method of Barry, et al. (Barry, W.H., et al., Circ. Res., 56:231-241 (1985)). A glass coverslip with attached cultured myocytes was placed in a chamber provided with inlet and exit ports for medium perfusion. The chamber was enclosed in a Lucite box at 37°C and placed on the stage of an inverted phase contrast microscope. The cells were covered with 1 ml medium containing HIF or ouabain. During continuous perfusion, medium bathing a cell in the center of a coverslip exchanged with a time constant of 15 seconds at a flow rate of 0.96 ml/minutes. Image was magnified using a 40x objective, and motion monitored by a low-light-level TV camera attached to the microscope and calibrated with 262 raster lines. […] The analog voltage output from the motion detector is filtered at low pass filter and calibrated to indicate actual um of motion, and the derivative is obtained electronically and recorded as velocity of motion in um/sec. […] The changes in contractility induced by ouabain or HIF were calculated in comparison with the contractility of the same cells before addition of ouabain or HIF.

## [Cl-].[K+] [KCl, potassium chloride]
[1]
  Change in Tension in Rat Aorta, % increase: 20%

## C[C@@H]1O[C@@H](O[C@H]2C[C@@H](O)[C@]3(CO)[C@H]4[C@H](O)C[C@]5(C)[C@@H](C6=CC(=O)OC6)CC[C@]5(O)[C@@H]4CC[C@]3(O)C2)[C@H](O)[C@H](O)[C@H]1O [ouabain]
[2]
  [Ca²⁺]i: 287 ± 15 nM
[2]; listed as Ouabain
  [Ca²⁺]i: 287 ± 15 nM
[3]; Rattus norvegicus, read-out: decrease of total ⁸⁶Rb⁺ uptake
  inhibition at 5000 µM: 74%
[3]; 10 min flux, control 810 nmol/mg protein
  total ⁸⁶Rb⁺ uptake: 210 nmol/mg
[4]; Rattus norvegicus, ouabain 5x10^-7 M, read-out: ASM, % increase
  activation at 0.5 µM: 41%
[4]; Rattus norvegicus, ouabain 5x10^-7 M, read-out: Rate, % decrease
  inhibition at 0.5 µM: 23 ± 2%
[4]; ouabain 1 uM
  toxicity on contracting myocytes (decrease in ASM, elevation in position of MR, increase in beating frequency): toxic range
[4]; ouabain 5x10^-7 M, listed as Ou
  ASM, % increase: 41±3%
